Results: US20060062842A1, “Method of administering a compound to multi-drug resistant cells” (Alza Corporation, priority 1998, published 2006)

Legend:
M109R-HiFR cells [1] = assay: In vivo adoptive tumor growth assay, footpad; parameters: species or system BALB/c mice
Excerpt: To examine the biological activity of drug delivered by the folate-pathway from folate-targeted liposomes in another model, M109R-HiFR cells in vitro were exposed to a test drug. These cells were inoculated into mice footpads. In this way, the growth of cells was tracked along a much longer time span than in in vitro experiments, and the influence of in vivo micro-environmental factors is brought into play. However, unlike therapeutic experiments, this type of in vivo adoptive assay is unaffected by pharmacokinetic and biodistribution factors which complicat the interpretation of results.
Accordingly, tumor cells in vitro were incubated with free doxorubicin or with liposome-entrapped, non-folate-targeted doxorubicin (DOXIL®) or with folate-targeted, liposome-entrapped doxorubicin in accord with the invention. As described in Example 9, the tumor cells were incubated in the presence of the selected formulation for 1 hour and then 1×10^6 cells were injected into the footpad of a mouse, each treatment formulation being injected into 8 mice.
At the end of the study on day 34 after injection of the treated tumor cells, the weight of each tumor-bearing mouse footpad was determined and […] to determine the tumor weight in each mouse footpad.
Female 10-week-old BALB/c mice were maintained in a specific pathogen-free facility. M109R-HiFR cells in in vitro suspension (10^7 cells/ml) were exposed to 10^−5M doxorubicin either as free drug, as liposome-entrapped (Doxil®), or as folate-targeted liposome-entrapped […], washed with PBS, and then resuspended at a concentration of 2×10^7 cells. Healthy, syngeneic BALB/c mice were injected into the right hind footpad with 50 μl (10^6 cells). The footpad thickness was measured with calipers once or twice a week for 5 weeks. After 35 days, mice were sacrificed, the final number of tumors recorded, and the control and tumor-inoculated footpads were sectioned at the ankle level and weighed. Tumor weight was estimated as the difference between the weight of the normal and tumor-bearing footpad. The statistical significance of differences in the final incidence of tumors per group was analyzed by contingency tables and the Fisher's exact test.

M109R-HiFR cells [2] = assay: Verapamil blockade of efflux pump and doxorubicin delivery; conditions: for Intracellular Doxorubicin Content: 0.5×10^-5 M doxorubicin, verapamil 10 μmol where named
[3] = test system: drug-sensitive (M109) cells; assay: Cell-associated doxorubicin after exposure; format: cell-based, murine; conditions: 0.5×10^-6 M doxorubicin
Description: (§1) The doxorubicin was administered to the cells in free form and entrapped in folate-targeted liposomes. The cell-associated drug was measured after 1 hour and 4 hours of exposure to doxorubicin.

[4] = test system: drug-resistance (M109R) cells; assay: Cell-associated doxorubicin after exposure; format: cell-based, murine; conditions: Drug-Resistant Cells, 0.2×10^-5 M doxorubicin
Description: as §1

M109R cells = assay: Multidrug-resistance of M109R subline; format: cell-based, murine
Excerpt: (i) Cell lines: M109, a murine lung carcinoma line of BALB/c mice (Marks, T. A. et al., Cancer Treat. Rep., 61:1459-1470 ([…])), and a subline of these cells, M109R displaying multidrug-resistance, (approximately 100 fold increased resistance to doxorubicin) were used in most of the studies. Both cell lines express in vitro low amounts of folic acid receptors and are therefore referred to as M109-LoFR and M109R-LoFR. By culturing these cells in folic acid-free medium for several passages, two sublines expressing a high amount of folic acid receptors were obtained. These sublines were adapted to grow under low folic acid conditions with generation doubling times similar to the lines of origin.

M109R-HiFR cells [5] = assay: Fluorescence tracking of doxorubicin in cells; format: cell-based, murine
Description: As described in Example 5, folate-targeted liposomes containing doxorubicin were prepared and incubated with M109R-HiFR cells. For comparison, M109R-HiFR cells were also incubated with free doxorubicin or with liposomes containing doxorubicin but with no folate targeting ligand.
In another study, the ability of the M109R-HiFR cells to retain doxorubicin after treatment for 1 hour with either free doxorubicin or with doxorubicin-loaded folate-targeted liposomes, followed by incubation in drug-free medium for 24 hours was examined.
M109 HIFR cells were plated, 24 hours prior to each study, on 24 mm cover slips inserted into 35 mm culture dishes. […]
Examination of the cells was done with inverted Zeiss confocal laser scanning microscope (LSM410) (Carl Zeiss, Jena, Germany). Maximum excitation was done by 543 nm line of the internal He-neon laser; fluorescence emission was observed above 570 nm with long-pass barrier filter LP-570) for rhodamine. For doxorubicin, maximum excitation was done by 488 nm line of internal Argon laser: fluorescence emission was observed above 515 nm with long pass barrier filter LP-515. […]
M109R-HiFr cells were incubated with free doxorubicin or with doxorubicin entrapped in folate-targeted liposomes at a doxorubicin concentration of 4×10^−5 M. The doxorubicin molecule was tracked using fluorescence.

tumor cells = assay: Adoptive tumor growth assay, subcutaneous injection; format: in vivo, mice; conditions: treated tumor cells injected subcutaneously (FIG. 16)
Excerpt: FIG. 16 is a plot showing the number of palpable tumors after subcutaneous injection of untreated (control, open circles) or in vitro treated tumor cells with free doxorubicin (closed circles), doxorubicin entrapped in non-targeted liposomes (open squares) and doxorubicin entrapped in folate-targeted liposomes (closed triangles).

M109-LoFR cells = assay: Folic acid binding to cell lines; parameters: species or system murine; conditions: incubation 30 min at 37° C.
Description: (§2) These cell lines and their capacity to bind folic acid were determine as set forth in Example 2B, by incubating the cells for 30 minutes with folic acid at 37° C.
(§3) Radioactivity was determined by liquid scintillation counting.

M109R-LoFR cells = assay: Folic acid binding to cell lines; parameters: species or system murine; conditions: incubation 30 min at 37° C.
Description: as §2, §3

KB-LoFR cells = assay: Folic acid binding to cell lines; parameters: species or system human
Description: as §2, §3

KB-HiFR cells = assay: Folic acid binding to cell lines; parameters: species or system human
Description: as §2, §3

[6] = test system: Murine Lung Carcinoma High Folate Receptor cells; assay: Folic acid binding to cell lines; conditions: Murine Lung Carcinoma High Folate Receptor (printed M109R-HiFR); 30 min at 37° C.
Description: as §2, §3

Human Melanoma line A375 = assay: Folic acid binding to cell lines; conditions: 30 min at 37° C.
Description: as §2, §3

Normal Human Fibroblasts = assay: Folic acid binding to cell lines; conditions: NHF; 30 min at 37° C.
Description: as §2, §3

M109R-HiFR cells [7] = assay: Folic acid binding to cell lines
[8] = cells exposed in vitro to 10^-5 M doxorubicin, 5 weeks follow-up

SMILES: COc1cccc2c1C(=O)c1c(O)c3c(c(O)c1C2=O)C[C@@](O)(C(=O)CO)C[C@@H]3O[C@H]1C[C@H](N)[C@H](O)[C@H](C)O1 [Free Doxorubicin, doxorubicin]
- Final Tumor Incidence (%) (M109R-HiFR cells [1]; [8]): 42%
- Final Tumor Incidence (tumors/mice) (M109R-HiFR cells [1]; [8]): 8/19
- Median Tumor weight (range) (M109R-HiFR cells [1]; footpad tumor weight at end of study): 239 (32-683) mg
- footpad thickness (M109R-HiFR cells [1]; tumor cells treated in vitro, 10^6 cells injected into footpad (FIG. 15A)): increase in footpad thickness
- cell fluorescence by flow cytometry in presence of verapamil (M109R-HiFR cells [2]; FIGS. 11A-11B): clear increase of cell fluorescence
- Intracellular Doxorubicin Content (M109R-HiFR cells [2]; exposure time 30 minutes): 24 ng/1.5 × 10^6 cells
- Intracellular Doxorubicin Content (M109R-HiFR cells [2]; exposure time 60 minutes): 42.5 ng/1.5 × 10^6 cells
- cell retention of doxorubicin in presence versus absence of verapamil (M109R-HiFR cells [2]; verapamil 10 μmol): ~4.5 fold
- Percent doxorubicin administered remaining in cells ([3]; exposure 1 hour): 8.6%
- intracellular doxorubicin ([3]; exposure 1 hour): 25 ng/1.5 × 10^6 cells
- Percent doxorubicin administered remaining in cells ([3]; exposure 4 hours): 12.4%
- intracellular doxorubicin ([3]; exposure 4 hours): 36.1 ng/1.5 × 10^6 cells
- Percent doxorubicin administered remaining in cells ([4]; exposure 1 hour): 5.5%
- intracellular doxorubicin ([4]; exposure 1 hour): 159 ng/1.5 × 10^6 cells
- Percent doxorubicin administered remaining in cells ([4]; exposure 4 hours): 4.2%
- intracellular doxorubicin ([4]; exposure 4 hours): 122 ng/1.5 × 10^6 cells
- increased resistance of M109R versus M109 (M109R cells): approximately 100 fold
- doxorubicin fluorescence retained in cells (M109R-HiFR cells [5]; 1 hour treatment, then 24 hours in drug-free medium (FIGS. 10C-10D)): almost completely waned
- time at which drug is located in the nucleus (M109R-HiFR cells [5]; doxorubicin 4×10^-5 M (FIGS. 9B, 9E)): ≤ 30 min
- number of palpable tumors (tumor cells): significant number of tumors

SMILES: Nc1nc2ncc(CNc3ccc(C(=O)N[C@@H](CCC(=O)O)C(=O)O)cc3)nc2c(=O)[nH]1 [folic acid]
- FOLIC ACID BINDING (M109-LoFR cells; M109-LoFR after culture in folic acid-depleted medium for 24 h): 25 ± 13 FENTOMOLES/10^4 CELLS
- FOLIC ACID BINDING (M109-LoFR cells; M109-LoFR): 20 ± 6 FENTOMOLES/10^4 CELLS
- FOLIC ACID BINDING (M109R-LoFR cells): 27 ± 10 FENTOMOLES/10^4 CELLS
- increase in folic acid binding (KB-LoFR cells; KB-LoFR after 24 hours in folic acid-depleted medium): 15 fold
- FOLIC ACID BINDING (KB-LoFR cells; KB-LoFR after culture in folic acid-depleted medium for 24 h, 30 min at 37° C.): 6725 ± 323 FENTOMOLES/10^4 CELLS
- difference in folic acid binding capacity (KB-HiFR cells; KB-HiFR (highest) compared with M109-LoFR (lowest)): up to 485 fold
- FOLIC ACID BINDING (KB-HiFR cells; KB-HiFR, 30 min at 37° C.): 9730 ± 79 FENTOMOLES/10^4 CELLS
- FOLIC ACID BINDING [6]: 678 ± 255 FENTOMOLES/10^4 CELLS
- FOLIC ACID BINDING (Human Melanoma line A375): 168 ± 33 FENTOMOLES/10^4 CELLS
- FOLIC ACID BINDING (Normal Human Fibroblasts): 45 ± 3 FENTOMOLES/10^4 CELLS
- FOLIC ACID BINDING (M109R-HiFR cells [7]; Multidrug-resistant High Folate Receptor M109R-HiFR, 30 min at 37° C.): 2179 ± 430 FENTOMOLES/10^4 CELLS
- folic acid remaining bound following acid wash (M109R-HiFR cells [7]; acid wash pH 3, binding at ~1° C. for 30 min): 2±1%
- loss of folic acid receptors shown by binding assay with folic acid (M109R-HiFR cells [7]; monolayers pretreated with PI-PLC): 99%
- cell-bound radiolabeled folic acid recovered after trypsinization (M109R-HiFR cells [7]; trypsin treatment): 91±11%
